Data on one molecule can be found in article PMC3382824, “Antioxidative Characteristics of Anisomeles indica Extract and Inhibitory Effect of Ovatodiolide on Melanogenesis” (2012).

Each structure is given as a SMILES string. pIC50: −log10 of the molar value.

This assay concerns the target mushroom tyrosinase. As to the kind of experiment: spectrophotometric dopachrome assay (L-DOPA substrate, […] nm). It is filed as biochemical.

For the molecule `C=C1C(=O)OC2C=C(C)CC3C=C(CCC=C(C)CCC12)C(=O)O3` (stereo not shown) [ovatodiolide], the pIC50 – broadly, the IC50 on a negative log10 scale, so that one unit is a factor of ten – is 3.60.
